For experiment [1], the system named is HCV replicon (BB7 sequence) in Huh-7-Clone A cells. The experiment is described as follows: HCV replicon assay: ELISA of NS5A protein in replicon-containing cells (Inhibition of Viral RNA Replication). The format is cell-based. The settings on record: Hepatitis C virus. Summed up:
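Huh-7-Clone A cells carrying subgenomic BB7 HCV replicon (G418-selectable) incubated 72 h with compound. NS5A protein quantified by cell ELISA: glutaraldehyde fixation, anti-NS5A monoclonal plus HRP secondary, TMB read at OD 650 nm. EC50 derived from 8-point serial dilution dose curve.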
(In general: Replicon systems follow genome replication, usually without infectious particles.)

The target of a further experiment is T1, HCV NS5B (Hepatitis C virus genotype 1b, UniProt Q9WMX2).
T1 construct: fusion protein, of which the carboxyl terminal 21 amino acids were removed to enhance its solubility; His tag (GSHHHHHH); made in house; host or cells: E. coli
Nature of the experiment: Inhibition of viral RNA-dependent RNA polymerase (RdRp), in vitro biochemical assay. The arrangement: species or system HCV genotype 1b virus (BB7). The settings on record: read-out: HCV pol-BB7 IC50. Summed up:
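Purified recombinant NS5B from a genotype 1b consensus (BB7), His-tagged, E. coli-expressed, with the C-terminal 21 residues deleted. Inhibition of RdRp activity in vitro was measured, and IC50 is the concentration giving 50% inhibition.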

The mark [2] stands for this setting: HCV replicon assay, ranges of EC50, read-out: Replicon.
[3] abbreviates: HCV NS5B RdRp, BB7, activity class.
Where [4] appears, read: Huh-7-Clone A, NS5A ELISA, 72-hour incubation, ranges of EC50, read-out: Replicon.
Setting [5] is: purified His-tagged NS5B (BB7), carboxyl terminal 21 amino acids removed.
Where [6] appears, read: HCV NS5B RdRp, BB7, class symbols A-D.
The mark [7] stands for this setting: ranges of EC50 in HCV replicon assay, read-out: Replicon.
[8] abbreviates: HCV replicon, range of EC50, read-out: Replicon.
Setting [9] is: HCV NS5B RdRp, BB7, reported as range class.
Setting [10] is: HCV replicon assay, ranges of 50% effective concentration (EC50), read-out: Replicon.
Setting [11] is: HCV NS5B polymerase, BB7 (genotype 1b), values given as range classes A-D.

Where two headings read alike, the source gives them in different places. Where only a bound is given, the exact number is not on record here.

Results on 27 compounds are retold here after US7265152B2 (ViroPharma Incorporated, priority 2002, dated 2007).

The IC50 is the point on the concentration scale where inhibition reaches its midpoint.

On to `CNC(=O)c1c(-c2ccc(F)cc2)oc2cc(N(C)S(C)(=O)=O)c(OCc3ccc(S(C)(=O)=O)cc3)cc12` [Example 353, 2-(4-Fluoro-phenyl)-5-(4-methanesulfonyl-benzyloxy)-6-(methanesulfonyl-methyl-amino)-benzofuran-3-carboxylic acid methylamide], for which the EC50 in experiment [1] (setting [2]) was less than 1 µM. In addition, the IC50 on HCV NS5B (setting [3]) was not above 500 nM.

For `CNC(=O)c1c(-c2ccc(F)cc2)oc2cc(NC(C)=O)c(OC)cc12` [Example 18, 6-Acetylamino-2-(4-fluoro-phenyl)-5-methoxy-benzofuran-3-carboxylic acid methylamide], the EC50 in experiment [1] (setting [4]) was less than 1 µM. For the same compound, at HCV NS5B (setting [5]), the half-maximal inhibitory concentration (IC50) is not above 500 nM.

With `CNC(=O)c1c(-c2ccc(F)cc2)oc2cc(N(CCF)S(C)(=O)=O)c(OC)cc12` [Example 307, 6-[(2-Fluoro-ethyl)-methanesulfonyl-amino]-2-(4-fluoro-phenyl)-5-methoxy-benzofuran-3-carboxylic acid methylamide], the EC50 in experiment [1] (setting [2]) is less than 1 µM. Also, the IC50 at HCV NS5B (setting [6]) is not above 500 nM.

For `CNC(=O)c1c(-c2ccc(F)cc2)oc2cc(-c3c(C4CC4)noc3COC)c(OC)cc12` [Example 310, 6-(3-Cyclopropyl-5-methoxymethyl-isoxazol-4-yl)-2-(4-fluoro-phenyl)-5-methoxy-benzofuran-3-carboxylic acid methylamide], the EC50 in experiment [1] (setting [2]) was less than 1 µM. Besides, the half-inhibitory concentration (IC50) at HCV NS5B (setting [6]) was not above 500 nM.

`CNC(=O)c1c(-c2ccc(F)cc2)oc2cc(S(=O)(=O)N(C)C)c(OC(C)C)cc12` [Example 144, 6-Dimethylsulfamoyl-2-(4-fluoro-phenyl)-5-isopropoxy-benzofuran-3-carboxylic acid methylamide]: in experiment [1] (setting [7]), the EC50 was less than 30 µM. Besides, on HCV NS5B (HCV NS5B RdRp, BB7 genotype 1b), the half-inhibitory concentration (IC50) was not above 500 nM.

For the compound `CNC(=O)c1c(-c2ccccc2)oc2ccc(OC)c(C)c12` [Example 25, 5-Methoxy-4-methyl-2-phenyl-benzofuran-3-carboxylic acid methylamide], the EC50 in experiment [1] (setting [4]) is more than 30 µM. Besides, on HCV NS5B (setting [5]), the concentration for half-maximal inhibition (IC50) is more than 30000 nM.

Take `CNC(=O)c1c(-c2ccc(F)cc2)oc2cc(CN(C)S(C)(=O)=O)c(OC(C)C)cc12` [Example 249, 2-(4-Fluoro-phenyl)-5-isopropoxy-6-[(methanesulfonyl-methyl-amino)-methyl]-benzofuran-3-carboxylic acid methylamide]: the EC50 in experiment [1] (setting [8]) is less than 10 µM. Further, the IC50 on HCV NS5B (setting [9]) is not above 500 nM.

Consider `C=CCOc1cc2c(C(=O)NC)c(-c3ccc(F)cc3)oc2cc1NCC` [Example 366, 5-Allyloxy-6-ethylamino-2-(4-fluoro-phenyl)-benzofuran-3-carboxylic acid methylamide], for which the EC50 in experiment [1] (setting [2]) was less than 1 µM. Further, the IC50 at HCV NS5B (setting [3]) is not above 500 nM.

As for `CCCOc1cc2c(C(=O)NC)c(-c3ccc(F)cc3)oc2cc1N(COC)S(C)(=O)=O` [Example 443, 2-(4-Fluoro-phenyl)-6-(methanesulfonyl-methoxymethyl-amino)-5-propoxy-benzofuran-3-carboxylic acid methylamide], the EC50 in experiment [1] (setting [2]) is less than 1 µM. Further, the IC50 at HCV NS5B (HCV NS5B RdRp, BB7 (genotype 1b), reported as class symbols) is not above 500 nM.

Regarding `CNC(=O)c1c(-c2ccc(F)cc2)oc2cc(N(CCN3CCOCC3)S(C)(=O)=O)c(OC(C)C)cc12` [Example 191, 2-(4-Fluoro-phenyl)-5-isopropoxy-6-[methanesulfonyl-(2-morpholin-4-yl-ethyl)-amino]-benzofuran-3-carboxylic acid methylamide], the EC50 in experiment [1] (setting [8]) was less than 1 µM. The IC50 on HCV NS5B (setting [9]) was not above 500 nM.

With `CNC(=O)c1c(-c2ccoc2)oc2ccc(OC)cc12` [Example 1, 2-Furan-3-yl-5-methoxy-benzofuran-3-carboxylic acid methylamide], the EC50 in experiment [1] (72 h, read-out: Replicon (μM)) is less than 30 µM. For the same compound, at HCV NS5B (setting [5]), the half-inhibitory concentration (IC50) lay within 500 to 5000 nM.

With `CNC(=O)c1c(-c2ccc(F)cc2)oc2cc(C(C)(C)O)c(C)cc12` [Example 300, 2-(4-Fluoro-phenyl)-6-(1-hydroxy-1-methyl-ethyl)-5-methyl-benzofuran-3-carboxylic acid methylamide], the EC50 in experiment [1] (setting [2]) was less than 10 µM. The IC50 on HCV NS5B (setting [6]) was not above 500 nM.

Turning to `CNC(=O)CN(c1cc2oc(-c3ccc(F)cc3)c(C(=O)NC)c2cc1OC)S(C)(=O)=O` [Example 331, 2-(4-Fluoro-phenyl)-6-(methanesulfonyl-methylcarbamoylmethyl-amino)-5-methoxy-benzofuran-3-carboxylic acid methylamide], the EC50 in experiment [1] (setting [2]) is less than 1 µM. Also, at HCV NS5B (setting [3]), the IC50 was not above 500 nM.

For the compound `CCNc1cc2oc(-c3ccc(F)cc3)c(C(=O)NC)c2c(Cl)c1OS(C)(=O)=O` [Example 342, Methanesulfonic acid 4-chloro-6-ethylamino-2-(4-fluoro-phenyl)-3-methylcarbamoyl-benzofuran-5-yl ester], the EC50 in experiment [1] (setting [2]) is less than 10 µM. The concentration for half-maximal inhibition (IC50) on HCV NS5B (setting [3]) is not above 500 nM.

For the compound `CNC(=O)c1c(-c2ccc(F)cc2)oc2ccc(C)cc12` [Example 10, 5-Methyl-2-(4-fluoro-phenyl)benzofuran-3-carboxylic acid methylamide], in experiment [1] (setting [4]), the EC50 is less than 10 µM. For the same compound, the IC50 on HCV NS5B (setting [5]) fell in the range of 500 to 5000 nM.

For `CNC(=O)c1c(-c2ccc(F)cc2)oc2cc(CN(C)C)c(OC(C)C)cc12` [Example 237, 6-Dimethylaminomethyl-2-(4-fluoro-phenyl)-5-isopropoxybenzofuran 3-carboxylic acid methylamide], the EC50 in experiment [1] (setting [8]) is less than 30 µM. At HCV NS5B (setting [9]), the IC50 was 5000 to 30000 nM.

As to `CNC(=O)c1c(-c2ccc(F)c(F)c2)oc2ccc(OC)cc12` [Example 3, 2-(3,4-Difluoro-phenyl)-5-methoxy-benzofuran-3-carboxylic acid methylamide], the EC50 in experiment [1] (setting [4]) was less than 10 µM. Also, at HCV NS5B (setting [5]), the half-inhibitory concentration (IC50) is not above 500 nM.

For the compound `CCNC(=O)c1c(-c2ccc(F)cc2)oc2cc(-c3c(C)noc3C)c(OC)cc12` [Example 378, 6-(3,5-Dimethyl-isoxazol-4-yl)-2-(4-fluoro-phenyl)-5-methoxy-benzofuran-3-carboxylic acid ethylamide], in experiment [1] (setting [2]), the EC50 was less than 1 µM. Also, the IC50 on HCV NS5B (setting [3]) is not above 500 nM.

As to `CNC(=O)c1c(-c2ccc(F)cc2)oc2cc(S(=O)(=O)N3CCOCC3)c(OC(C)C)cc12` [Example 142, 2-(4-Fluoro-phenyl)-5-isopropoxy-6-(morpholine-4-sulfonyl)-benzofuran-3-carboxylic acid methylamide], the EC50 in experiment [1] (setting [7]) is less than 10 µM. The concentration for half-maximal inhibition (IC50) at HCV NS5B (HCV NS5B RdRp, BB7 genotype 1b) is not above 500 nM.

With `CNC(=O)c1c(-c2ccc(F)cc2)oc2cc(-c3c(COC)noc3C)c(OC)cc12` [Example 336, 2-(4-Fluoro-phenyl)-5-methoxy-6-(3-methoxymethyl-5-methyl-isoxazol-4-yl)-benzofuran-3-carboxylic acid methylamide], in experiment [1] (setting [2]), the EC50 was less than 1 µM. Moreover, on HCV NS5B (setting [3]), the IC50 was not above 500 nM.

In the case of `CNC(=O)c1c(-c2ccc(F)cc2)oc2cc(-c3c(C)noc3C)c(OCc3nnnn3C)cc12` [Example 427, 6-(3,5-Dimethyl-isoxazol-4-yl)-2-(4-fluoro-phenyl)-5-(1-methyl-1H-tetrazol-5-ylmethoxy)-benzofuran-3-carboxylic acid methylamide], in experiment [1] (setting [10]), the EC50 was less than 1 µM. The IC50 at HCV NS5B (setting [11]) is not above 500 nM.

On to `CCN(c1cc2oc(-c3ccc(F)cc3)c(C(=O)NC)c2cc1O)S(C)(=O)=O` [Example 297, 6-(Ethyl-methanesulfonyl-amino)-2-(4-fluoro-phenyl)-5-hydroxy-benzofuran-3-carboxylic acid methylamide], for which the EC50 in experiment [1] (setting [2]) is less than 10 µM. Also, the IC50 at HCV NS5B (setting [6]) was not above 500 nM.

Take `CCCCOc1ccc2oc(-c3ccccc3)c(C(=O)NC)c2c1` [Example 60, 5-Butoxy-2-phenyl-benzofuran-3-carboxylic acid methylamide]: the EC50 in experiment [1] (setting [4]) was less than 30 µM. In addition, the IC50 at HCV NS5B (setting [5]) lay within 500 to 5000 nM.

Take `CNC(=O)c1c(-c2cccs2)oc2ccc(OC)cc12` [Example 88, 5-Methoxy-2-thiophen-2-yl-benzofuran-3-carboxylic acid methylamide]: the EC50 in experiment [1] (setting [4]) was less than 30 µM. In addition, the IC50 on HCV NS5B (setting [5]) is 500 to 5000 nM.

`CNC(=O)c1c(-c2ccc(F)cc2)oc2cc(N(C)S(C)(=O)=O)c(OCc3c(C)noc3C)cc12` [Example 324, 5-(3,5-Dimethyl-isoxazol-4-ylmethoxy)-2-(4-fluoro-phenyl)-6-(methanesulfonyl-methyl-amino)-benzofuran-3-carboxylic acid methylamide]: the EC50 in experiment [1] (setting [2]) was less than 1 µM. The IC50 on HCV NS5B (setting [6]) was not above 500 nM.

For `CNC(=O)c1c(-c2ccc(F)cc2)oc2cc(-c3cc(C)n(C)n3)c(OC(C)C)cc12` [Example 248, 6-(1,5-Dimethyl-1H-pyrazol-3-yl)-2-(4-fluoro-phenyl)-5-isopropoxy-benzofuran-3-carboxylic acid methylamide], in experiment [1] (setting [8]), the EC50 was less than 10 µM. Moreover, the concentration for half-maximal inhibition (IC50) at HCV NS5B (setting [9]) lay in the range of 500 to 5000 nM.

On to `CNC(=O)c1c(-c2ccc(F)cc2)oc2cc(C3NC(=O)NC3=O)c(OC)cc12` (stereo not drawn) [Example 406, 6-(2,5-Dioxo-imidazolidin-4-yl)-2-(4-fluoro-phenyl)-5-methoxy-benzofuran-3-carboxylic acid methylamide], for which the EC50 in experiment [1] (setting [10]) was less than 1 µM. Besides, the IC50 at HCV NS5B (setting [11]) is 500 to 5000 nM.
